In one assay the target is HBO-KAT7 (Homo sapiens, UniProt O95251). Kind of assay: Acetyltransferase biochemical assay (AlphaScreen), KAT7. (Bead proximity is the source of the signal in Alpha formats.)
Another assay addresses MOZ-KAT6A (Homo sapiens, UniProt Q92794, A567V). Kind of assay: Acetyltransferase biochemical assay (AlphaScreen), KAT6A.
In a further assay the target is TIP60-KAT5 (Homo sapiens, UniProt Q92993). The assay can be described thus: Acetyltransferase biochemical assay (AlphaScreen), KAT5.
Chain of TIP60-KAT5 (Q92993 with tags, fused parts or gaps isoform Q92993-2): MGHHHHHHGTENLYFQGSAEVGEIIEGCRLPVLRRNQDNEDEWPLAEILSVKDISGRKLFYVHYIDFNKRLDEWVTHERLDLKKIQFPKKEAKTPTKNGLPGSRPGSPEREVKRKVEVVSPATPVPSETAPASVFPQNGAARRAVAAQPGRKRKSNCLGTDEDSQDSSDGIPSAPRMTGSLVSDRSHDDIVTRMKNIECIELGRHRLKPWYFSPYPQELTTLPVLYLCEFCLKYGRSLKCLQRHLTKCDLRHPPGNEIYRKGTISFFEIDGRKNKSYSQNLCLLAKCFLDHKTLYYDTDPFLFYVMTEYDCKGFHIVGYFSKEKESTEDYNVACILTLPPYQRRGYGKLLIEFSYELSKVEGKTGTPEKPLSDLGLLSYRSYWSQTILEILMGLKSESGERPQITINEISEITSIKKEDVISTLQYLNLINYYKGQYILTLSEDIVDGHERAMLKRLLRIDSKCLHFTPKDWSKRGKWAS

Each structure is given as a SMILES string. Where only a bound is given, the exact number is not on record here.

Chain of MOZ-KAT6A (Q92794 with tags, fused parts or gaps A567V): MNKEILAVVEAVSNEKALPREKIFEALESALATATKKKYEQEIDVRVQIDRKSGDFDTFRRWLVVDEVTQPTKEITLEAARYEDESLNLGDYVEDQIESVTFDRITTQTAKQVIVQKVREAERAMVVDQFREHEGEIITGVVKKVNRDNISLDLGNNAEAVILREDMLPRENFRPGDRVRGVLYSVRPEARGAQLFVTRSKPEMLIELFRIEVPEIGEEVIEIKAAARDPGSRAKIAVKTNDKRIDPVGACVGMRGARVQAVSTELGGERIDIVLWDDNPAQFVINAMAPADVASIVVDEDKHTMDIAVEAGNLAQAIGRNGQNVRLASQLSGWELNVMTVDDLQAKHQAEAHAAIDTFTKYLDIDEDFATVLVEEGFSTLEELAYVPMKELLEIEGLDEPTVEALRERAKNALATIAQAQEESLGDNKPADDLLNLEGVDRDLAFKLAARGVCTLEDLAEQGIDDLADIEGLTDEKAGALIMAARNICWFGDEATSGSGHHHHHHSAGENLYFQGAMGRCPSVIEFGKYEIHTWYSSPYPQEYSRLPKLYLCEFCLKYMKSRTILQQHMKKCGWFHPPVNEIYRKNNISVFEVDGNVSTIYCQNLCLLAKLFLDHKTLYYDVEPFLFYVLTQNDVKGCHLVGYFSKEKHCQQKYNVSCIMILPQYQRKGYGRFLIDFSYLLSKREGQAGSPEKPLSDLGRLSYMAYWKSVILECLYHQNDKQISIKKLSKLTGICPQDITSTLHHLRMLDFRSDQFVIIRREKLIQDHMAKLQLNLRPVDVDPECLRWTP
Chain of HBO-KAT7 (O95251 with tags, fused parts or gaps): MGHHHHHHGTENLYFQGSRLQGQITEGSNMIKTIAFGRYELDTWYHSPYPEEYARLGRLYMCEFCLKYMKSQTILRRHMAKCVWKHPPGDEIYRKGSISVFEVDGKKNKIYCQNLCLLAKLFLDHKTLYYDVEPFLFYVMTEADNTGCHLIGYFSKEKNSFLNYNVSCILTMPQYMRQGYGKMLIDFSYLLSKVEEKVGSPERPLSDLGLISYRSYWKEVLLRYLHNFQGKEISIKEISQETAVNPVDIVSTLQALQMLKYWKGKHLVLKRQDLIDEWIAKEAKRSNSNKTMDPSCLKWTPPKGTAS

By IC50 is commonly meant the midpoint of a concentration-inhibition curve. Read a low IC50 as higher potency. As to `CC(C)(C)c1ccc(S(=O)(=O)Nc2noc3cccc(Cl)c23)cc1` [Example 25, 4-(tert-butyl)-N-(4-chlorobenzo[d]isoxazol-3-yl)benzenesulfonamide], the IC50 is 41.9 µM at HBO-KAT7, 33.2 µM at MOZ-KAT6A and 120 µM at TIP60-KAT5.
The like results for `COc1cccc(OC)c1S(=O)(=O)Nc1noc2cc(-c3ccccn3)c(C)cc12` [Example 241, 2,6-Dimethoxy-N-(5-methyl-6-(pyridin-2-yl)benzo[d]isoxazol-3-yl)benzenesulfonamide] were, in that order, 2.51 µM, 0.157 µM and 26.3 µM.
The like results for `CCc1ccc(OC)c(S(=O)(=O)Nc2noc3cccc(CC)c23)c1` [Example 199] were, in that order, 0.632 µM, 0.709 µM and 14.9 µM.
On the same counts, the results for `CCc1ccc(OC)c(S(=O)(=O)Nc2noc3cccc(Br)c23)c1` [Example 129] are 1.32 µM, 0.772 µM and 18.5 µM.
For the compound `COc1ccc(-c2ccno2)cc1S(=O)(=O)Nc1noc2ccccc12` [Example 55, N-(benzo[d]isoxazol-3-yl)-5-(isoxazol-5-yl)-2-methoxybenzene sulfonamide], the IC50 on HBO-KAT7 was more than 125 µM; on MOZ-KAT6A, 103 µM; on TIP60-KAT5 it was more than 125 µM.
Take `COCc1ccc2c(NS(=O)(=O)c3c(OC)cccc3OC)noc2c1` [Example 103, 2,6-Dimethoxy-N-(6-(methoxymethyl)benzo [d]isoxazol-3-yl)benzenesulfonamide]: the figures for the IC50 against HBO-KAT7, on MOZ-KAT6A and on TIP60-KAT5 were 5.93 µM, 0.81 µM and 69.3 µM, respectively.
On the same counts, the results for `COc1cccc2onc(NS(=O)(=O)c3c(C)ccc4cccnc34)c12` [Example 77, N-(4-methoxybenzo[d]isoxazol-3-yl)-7-methyl quinoline-8-sulfonamide] are 12 µM, 10.8 µM and 51.8 µM.
On the same counts, the results for `O=S(=O)(Nc1noc2ccccc12)c1ccc2c(c1)CCC2` [Example 64, N-(benzo[d]isoxazol-3-yl)-2,3-dihydro-1H-indene-5-sulfonamide] are 106 µM, 26.7 µM and more than 125 µM.
On the same counts, the results for `O=S(=O)(Nc1noc2cccc(Cl)c12)c1ccccc1Oc1ccccc1` [Example 4, N-(4-chlorobenzo [d]isoxazol-3-yl)-2-phenoxybenzene sulfonamide] are 5.17 µM, 6.22 µM and 35.2 µM.
For `CCc1ccc(OC)c(S(=O)(=O)Nc2noc3c(C(=O)N(C)C)cccc23)c1` [Example 185, 3-(5-Ethyl-2-methoxyphenylsulfonamido)-N,N-dimethylbenzo[d]isoxazole-7-carboxamide], the results for the IC50 on HBO-KAT7, on MOZ-KAT6A and on TIP60-KAT5 were 60.7 µM, 105 µM and more than 125 µM, respectively.
The like results for `COc1ccc(C(C)C)cc1S(=O)(=O)Nc1noc2cccc(Cl)c12` [Example 41, N-(4-chlorobenzo [d]isoxazol-3-yl)-5-isopropyl-2-methoxybenzene sulfonamide] were, in that order, 11.8 µM, 4.27 µM and 65.1 µM.
Consider `CCc1ccc(OC)c(S(=O)(=O)Nc2noc3cc(-c4cnn(C)c4)ccc23)c1` [Example 196, 5-Ethyl-2-methoxy-N-(6-(1-methyl-1H-pyrazol-4-yl)benzo[d]isoxazol-3-yl)benzenesulfonamide], for which the 50% inhibitory concentration (IC50) at HBO-KAT7 stood at 23.3 µM; on MOZ-KAT6A, 13.9 µM; against TIP60-KAT5, 95.4 µM.
The like results for `O=S(=O)(Nc1noc2cccc(Cl)c12)c1cccc2ccncc12` [Example 159, N-(4-chlorobenzo[d]isoxazol-3-yl)isoquinoline-8-sulfonamide] were, in that order, 37.6 µM, 66.6 µM and more than 125 µM.
Regarding `CCc1ccc(OC)c(S(=O)(=O)Nc2noc3cccc(-c4cnn(C)c4)c23)c1` [Example 202, 5-Ethyl-2-methoxy-N-(4-(1-methyl-1H-pyrazol-4-yl)benzo[d]isoxazol-3-yl)benzenesulfonamide], the IC50 was determined as 54.4 µM against HBO-KAT7, 18.9 µM on MOZ-KAT6A and 111 µM on TIP60-KAT5.
On the same counts, the results for `COc1cc(C)cc(C)c1S(=O)(=O)Nc1noc2cccc(OC)c12` [Example 72, 2-methoxy-N-(4-methoxybenzo[d]isoxazol-3-yl)-4,6-dimethylbenzene sulfonamide] are 11.4 µM, 46.2 µM and more than 125 µM.
On the same counts, the results for `CCc1ccc(OC)c(S(=O)(=O)Nc2noc3cc(CC)ccc23)c1` [Example 194] are 6.87 µM, 1.51 µM and 37.8 µM.
With `CCc1ccc(OC)c(S(=O)(=O)Nc2noc3ccc(Br)cc23)c1` [Example 135], the half-inhibitory concentration (IC50) on HBO-KAT7 is 1.43 µM; at MOZ-KAT6A, 0.563 µM; at TIP60-KAT5 it was 4.79 µM.
On the same counts, the results for `CCc1ccc(OC)c(S(=O)(=O)Nc2noc3cccc(C4CC4)c23)c1` [Example 200] are 0.678 µM, 0.364 µM and 4.73 µM.
On the same counts, the results for `CCc1ccc(OC)c(S(=O)(=O)Nc2noc3cc(-n4ccnn4)ccc23)c1` [Example 125] are 85.8 µM, 24.5 µM and more than 125 µM.
On the same counts, the results for `CCc1ccc(OC)c(S(=O)(=O)Nc2noc3cc(-n4cccn4)ccc23)c1` [Example 131] are 23.8 µM, 3.11 µM and 69.7 µM.
On to `COc1ccc(Br)cc1S(=O)(=O)Nc1noc2cccc(Cl)c12` [Example 45], for which the results for the IC50 on HBO-KAT7, against MOZ-KAT6A and against TIP60-KAT5 were 6.83 µM, 2.08 µM and 34.3 µM, respectively.
On the same counts, the results for `CCOc1ccc2c(NS(=O)(=O)c3cc(CC)ccc3OC)noc2c1` [Example 139] are 10 µM, 2.14 µM and 34.3 µM.
On the same counts, the results for `O=S(=O)(Nc1noc2ccccc12)c1ccc2ccccc2c1` [Example 66, N-(benzo[d]isoxazol-3-yl)naphthalene-2-sulfonamide] are 114 µM, 14.6 µM and 123 µM.
On to `CCc1ccc(OC)c(S(=O)(=O)Nc2noc3cccc(-c4cncnc4)c23)c1` [Example 203, 5-Ethyl-2-methoxy-N-(4-(pyrimidin-5-yl)benzo[d]isoxazol-3-yl)benzenesulfonamide], for which the 50% inhibitory concentration (IC50) at HBO-KAT7 turned out to be 23.4 µM; on MOZ-KAT6A, 22.6 µM; on TIP60-KAT5 it was 74.3 µM.
The like results for `O=S(=O)(Nc1noc2cccc(Cl)c12)c1cccc2c1OCC2` [Example 180, N-(4-Chlorobenzo[d]isoxazol-3-yl)-2,3-dihydrobenzofuran-7-sulfonamide] were, in that order, 1.76 µM, 9.44 µM and 25.5 µM.
The like results for `O=S(=O)(Nc1noc2cccc(Cl)c12)c1ccc2c(c1)OCCCO2` [Example 14, N-(4-chlorobenzo [d]isoxazol-3-yl)-3,4-dihydro-2H-benzo[b][1,4]dioxepine-7-sulfonamide] were, in that order, 15.2 µM, 45 µM and more than 125 µM.

Source of the values: US12365655B2, “Compounds” (CTXT PTY LTD, priority 2018, dated 2025).
